How the values were obtained:
[1] = test system: KG-1 cells (FGFR1-fusion); test: KG-1 cancer cell line cell viability assay (CellTiter-Glo 2.0); assay type: cell-based; conditions: Homo sapiens, 72 hours, Cell Titer Glo 2.0
Source text: (§1) Experimental Purpose: To detect the change of intracellular ATP by Cell Titer-Glo® and to evaluate the inhibitory effect of the compounds on cancer cell lines by determining the in vitro IC50 value of the compounds.
(§2) Cell Titer-Glo® 2.0 Luminescent cell viability assay reagent was purchased from Promega (Madison, WI). RT112/84 and KG-1 cell lines were purchased from American Type Culture Collection (Manassas, VA). UM-UC-14 cell line was purchased from Sigma (St. Louis, MO). RT112/84, UM-UC-14, and KG-1 cells were cultured in RPMI1640 media supplemented with 10% fetal bovine serum. Cultures were maintained at 37° C. in a humidified atmosphere of 5% C02 and 95% air.
(§3) Cell Viability Assay Procedure: Cells were plated in 96-well clear bottom/white plates (Corning #3903) at 10,000 cells/well in 100 μl of media, incubated overnight. The next day, test compound DMSO stock solutions were made at 10 mM and 2 μM final concentration. Compounds were then added to cells in a 9-dose, 10-fold dilution series starting at 30 μM with an HP 300e Digital Dispenser (each dose was applied in triplicate). DMSO was backfilled to each well up to 301 nL total volume of test compound+DMSO, and a total of 301 nL DMSO was added to a control/no test compound well in triplicate. The cells in cell culture plates were incubated with the compounds at 37° C. and 5% C02 for 72 hours. Then 50 μl of Cell Titer Glo 2.0 reagent was added to each well of the cell culture plates. The contents were covered from light and mixed on an orbital shaker at room temperature for 10 min. Luminescence was recorded by a Synergy H1 Microplate Reader (Biotek, Winooski, VT). Cells were assessed as a percentage of DMSO only treated control cells. Curves were plotted and IC50 values were calculated using the GraphPad Prism 8 program based on a sigmoidal dose-response equation (4 parameter).

[2] = molecular target: FGFR3-BAIAP2L1 Ba/F3 cells (Homo sapiens, UniProt P22607); test: Ba/F3 cell viability assay (CellTiter-Glo 2.0), FGFR3-BAIAP2L1 Ba/F3; assay type: cell-based; conditions: for Ba/F3 FGFR1/FGFR3 Selectivity: FGFR3 > FGFR1 selectivity ratio in Ba/F3 FGFR fusion cell based assays; for IC50: read-out: Ba/F3 Cells FGFR3 (IC50 nM), FGFR3-BAIAP2L1 Ba/F3 cells, 48 hours, Cell Titer Glo 2.0
Chain of FGFR3-BAIAP2L1 Ba/F3 cells (P22607 23-806 limits assumed, change not shown): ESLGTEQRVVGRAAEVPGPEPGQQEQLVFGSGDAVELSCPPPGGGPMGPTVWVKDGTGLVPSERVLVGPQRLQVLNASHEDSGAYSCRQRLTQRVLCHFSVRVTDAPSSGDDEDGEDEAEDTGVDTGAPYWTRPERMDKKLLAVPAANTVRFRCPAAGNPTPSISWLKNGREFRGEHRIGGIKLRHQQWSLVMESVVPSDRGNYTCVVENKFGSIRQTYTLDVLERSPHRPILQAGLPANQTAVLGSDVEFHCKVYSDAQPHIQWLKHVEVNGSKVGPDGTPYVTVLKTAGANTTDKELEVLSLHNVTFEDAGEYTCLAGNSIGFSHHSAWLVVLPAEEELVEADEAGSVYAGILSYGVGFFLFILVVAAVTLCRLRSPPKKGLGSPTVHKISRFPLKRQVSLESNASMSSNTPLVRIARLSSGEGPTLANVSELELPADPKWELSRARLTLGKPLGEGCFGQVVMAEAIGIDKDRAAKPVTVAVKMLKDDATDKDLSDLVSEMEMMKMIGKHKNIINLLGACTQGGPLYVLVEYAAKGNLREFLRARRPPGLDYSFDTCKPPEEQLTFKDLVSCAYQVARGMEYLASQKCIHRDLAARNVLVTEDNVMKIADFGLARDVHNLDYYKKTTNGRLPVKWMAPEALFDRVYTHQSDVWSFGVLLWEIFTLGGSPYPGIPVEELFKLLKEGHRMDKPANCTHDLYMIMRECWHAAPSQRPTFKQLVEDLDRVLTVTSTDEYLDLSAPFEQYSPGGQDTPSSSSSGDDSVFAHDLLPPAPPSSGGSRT
Method in brief: (§4)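 Viability read as ATP luminescence (CellTiter-Glo 2.0) after 48 h compound exposure, normalized to DMSO-treated cells and fitted with a 4-parameter curve for IC50. Cells: Ba/F3 dependent on FGFR1-BCR or FGFR3-BAIAP2L1 fusion kinase; top dose 30 μM, 10-fold steps, 9 doses in triplicate.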

[3] = test system: RT112/84 cells (FGFR3-fusion); test: RT112/84 cancer cell line cell viability assay (CellTiter-Glo 2.0); assay type: cell-based; conditions: Homo sapiens, 72 hours, Cell Titer Glo 2.0
Source text: as §1, §2, §3

[4] = molecular target: FGFR1-BCR Ba/F3 cells (Homo sapiens, UniProt P11362); test: Ba/F3 cell viability assay (CellTiter-Glo 2.0), FGFR1-BCR Ba/F3; assay type: cell-based; conditions: read-out: Ba/F3 Cells FGFR1 (IC50 nM), 48 hours, Cell Titer Glo 2.0
Chain of FGFR1-BCR Ba/F3 cells (P11362 22-822 limits assumed, change not shown): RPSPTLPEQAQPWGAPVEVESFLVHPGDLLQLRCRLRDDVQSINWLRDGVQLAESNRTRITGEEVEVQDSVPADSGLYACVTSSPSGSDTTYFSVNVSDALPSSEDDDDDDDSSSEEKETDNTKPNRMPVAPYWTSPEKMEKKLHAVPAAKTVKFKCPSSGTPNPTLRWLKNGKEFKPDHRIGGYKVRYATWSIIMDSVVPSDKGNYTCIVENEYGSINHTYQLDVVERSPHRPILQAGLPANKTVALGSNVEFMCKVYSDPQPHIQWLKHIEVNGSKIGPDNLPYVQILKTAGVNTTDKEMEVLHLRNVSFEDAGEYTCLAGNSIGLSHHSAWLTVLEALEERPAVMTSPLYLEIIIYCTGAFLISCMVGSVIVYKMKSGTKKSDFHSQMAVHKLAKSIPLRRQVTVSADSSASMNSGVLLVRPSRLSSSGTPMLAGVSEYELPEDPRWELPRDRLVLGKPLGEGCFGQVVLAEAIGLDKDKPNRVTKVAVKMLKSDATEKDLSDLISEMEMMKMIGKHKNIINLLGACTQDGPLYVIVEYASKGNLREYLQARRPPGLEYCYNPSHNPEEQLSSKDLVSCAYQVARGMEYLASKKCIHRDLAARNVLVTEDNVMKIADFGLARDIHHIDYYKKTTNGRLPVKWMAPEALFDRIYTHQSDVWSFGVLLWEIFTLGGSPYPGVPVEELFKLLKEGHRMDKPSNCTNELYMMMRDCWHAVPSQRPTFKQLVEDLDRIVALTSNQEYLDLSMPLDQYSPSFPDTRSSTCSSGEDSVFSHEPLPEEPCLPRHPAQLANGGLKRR
Method in brief: as §4

[5] = molecular target: FGFR4 (Homo sapiens (Human), UniProt P22455); test: Kinase assay, binding constants (Kd), kinase-tagged T7 phage, qPCR
Chain of FGFR4 (P22455 22-802): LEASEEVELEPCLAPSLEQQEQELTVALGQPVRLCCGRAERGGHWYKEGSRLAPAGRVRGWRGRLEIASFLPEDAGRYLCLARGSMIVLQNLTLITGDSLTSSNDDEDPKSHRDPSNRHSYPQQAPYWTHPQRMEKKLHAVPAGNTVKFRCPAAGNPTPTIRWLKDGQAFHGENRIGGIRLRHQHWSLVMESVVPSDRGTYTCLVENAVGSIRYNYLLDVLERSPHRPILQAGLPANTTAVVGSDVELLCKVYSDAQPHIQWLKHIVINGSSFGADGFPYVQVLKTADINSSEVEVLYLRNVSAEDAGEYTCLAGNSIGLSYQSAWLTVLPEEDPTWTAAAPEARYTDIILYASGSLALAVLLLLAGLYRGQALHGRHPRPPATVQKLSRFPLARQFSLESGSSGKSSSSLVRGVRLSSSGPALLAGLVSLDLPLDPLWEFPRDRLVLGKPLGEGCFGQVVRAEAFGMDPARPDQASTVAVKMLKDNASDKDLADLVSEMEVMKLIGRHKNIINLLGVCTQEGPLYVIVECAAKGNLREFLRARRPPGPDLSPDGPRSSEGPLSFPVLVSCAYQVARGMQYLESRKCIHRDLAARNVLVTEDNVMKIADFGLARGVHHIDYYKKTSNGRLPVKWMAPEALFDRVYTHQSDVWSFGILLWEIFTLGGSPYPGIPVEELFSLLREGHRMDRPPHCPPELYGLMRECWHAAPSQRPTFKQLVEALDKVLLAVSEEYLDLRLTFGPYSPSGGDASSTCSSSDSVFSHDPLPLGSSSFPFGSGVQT
Method in brief: (§5)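 Kinase-tagged T7 phage (grown in BL21-derived E. coli) competed with test compound for immobilized biotinylated ligand on streptavidin beads. Kds came from an 11-point 3-fold dilution series at 0.9% final DMSO. Bound kinase was eluted with non-biotinylated ligand and quantified by qPCR, with Hill slope fixed at −1.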

[6] = molecular target: FGFR2 (Homo sapiens (Human), UniProt P21802); test: as above
Chain of FGFR2 (P21802 22-821): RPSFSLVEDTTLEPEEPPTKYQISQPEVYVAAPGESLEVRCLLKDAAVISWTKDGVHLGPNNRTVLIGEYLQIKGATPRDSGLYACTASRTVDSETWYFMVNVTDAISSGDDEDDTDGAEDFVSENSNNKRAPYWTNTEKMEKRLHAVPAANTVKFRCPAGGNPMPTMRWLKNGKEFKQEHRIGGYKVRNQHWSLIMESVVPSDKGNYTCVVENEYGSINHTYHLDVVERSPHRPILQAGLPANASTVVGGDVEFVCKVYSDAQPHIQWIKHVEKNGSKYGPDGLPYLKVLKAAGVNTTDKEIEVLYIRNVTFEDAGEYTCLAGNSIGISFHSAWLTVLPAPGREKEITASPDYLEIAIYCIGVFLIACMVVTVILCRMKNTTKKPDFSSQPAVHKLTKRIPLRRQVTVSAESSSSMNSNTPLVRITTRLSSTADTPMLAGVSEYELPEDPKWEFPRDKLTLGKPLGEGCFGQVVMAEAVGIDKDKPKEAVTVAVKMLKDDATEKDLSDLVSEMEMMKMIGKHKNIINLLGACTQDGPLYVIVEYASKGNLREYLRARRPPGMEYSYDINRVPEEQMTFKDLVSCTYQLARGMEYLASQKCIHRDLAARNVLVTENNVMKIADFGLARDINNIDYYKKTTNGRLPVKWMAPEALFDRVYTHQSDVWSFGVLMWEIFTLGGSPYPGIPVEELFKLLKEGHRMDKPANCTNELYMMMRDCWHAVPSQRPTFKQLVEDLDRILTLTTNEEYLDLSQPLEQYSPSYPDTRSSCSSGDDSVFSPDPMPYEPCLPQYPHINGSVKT
Method in brief: as §5

[7] = molecular target: FGFR3 (V555M) (Homo sapiens (Human), UniProt P22607, V555M); test: as above; conditions: V555M mutant
Chain of FGFR3 (V555M) (P22607 23-806 V555M): as the sequence (P22607 23-806 limits assumed, change not shown) above, with V533M counted along it
Method in brief: as §5

[8] = molecular target: FGFR1 (Homo sapiens (Human), UniProt P11362); test: as above
Chain of FGFR1 (P11362 22-822): as the sequence (P11362 22-822 limits assumed, change not shown) above
Method in brief: as §5

[9] = molecular target: FGFR3 (Homo sapiens (Human), UniProt P22607); test: as above
Chain of FGFR3 (P22607 23-806): as the sequence (P22607 23-806 limits assumed, change not shown) above
Method in brief: as §5

| Structure (SMILES) | IC50 [1] [nM] | Ba/F3 FGFR1/FGFR3 Selectivity [2] | IC50 [2] [nM] | IC50 [3] [nM] | IC50 [4] [nM] | Kd [5] [nM] | Kd [6] [nM] | Kd [7] [nM] | Kd [8] [nM] | Kd [9] [nM] |
| --- | --- | --- | --- | --- | --- | --- | --- | --- | --- | --- |
| C[C@@H](Oc1ccc2[nH]nc(-c3ccc(N4CCC5(CC4)CN(C)CC(=O)N5)nc3)c2c1)c1c(Cl)cncc1Cl [Example 97, 9-[5-[5-[(1R)-1-(3,5-dichloro-4-pyridyl)ethoxy]-1H-indazol-3-yl]-2-pyridyl]-4-methyl-1,4,9-triazaspiro[5.5]undecan-2-one] | 20 to 100 | 15 | 1 to 20 | 1 to 20 | 20 to 100 | 1 to 20 | 1 to 20 | 1 to 20 | 1 to 20 | 1 to 20 |
| C[C@@H](Oc1ccc2[nH]nc(-c3ccc(N4CCC5(CC4)CN(C)CC(=O)N5C)nc3)c2c1)c1c(Cl)cncc1Cl [Example 98, 9-[5-[5-[(1R)-1-(3,5-dichloro-4-pyridyl)ethoxy]-1H-indazol-3-yl]-2-pyridyl]-1,4-dimethyl-1,4,9-triazaspiro[5.5]undecan-2-one] | 20 to 100 | 24 | 1 to 20 | 1 to 20 | 20 to 100 | 1 to 20 | 1 to 20 | 1 to 20 | 1 to 20 | 1 to 20 |
| C[C@@H](Oc1ccc2[nH]nc(-c3cnn(C4CCOCC4)c3)c2c1)c1c(Cl)cncc1Cl [Example 106, 5-[(1R)-1-(3,5-dichloro-4-pyridyl)ethoxy]-3-(1-tetrahydropyran-4-ylpyrazol-4-yl)-1H-indazole] | 100 to 300 | 11 | 1 to 20 | 1 to 20 | 100 to 300 | 1 to 20 | 1 to 20 | 1 to 20 | 1 to 20 | 1 to 20 |
| Cc1ncc(Cl)c([C@@H](C)Oc2ccc3[nH]nc(-c4ccc(N5CC6(C5)CN(S(C)(=O)=O)C6)nc4)c3c2)c1Cl [Example 107, 5-[(1R)-1-(3,5-dichloro-2-methyl-4-pyridyl)ethoxy]-3-[6-(2-methylsulfonyl-2,6-diazaspiro[3.3]heptan-6-yl)-3-pyridyl]-1H-indazole] | 100 to 300 | 16 | 1 to 20 | 20 to 100 | 100 to 300 | 1 to 20 | 20 to 100 | 1 to 20 | 20 to 100 | 1 to 20 |
| CC(Oc1ccc2[nH]nc(-c3ccc(N4CC5(C4)CN(S(C)(=O)=O)C5)nc3)c2c1)c1c(Cl)ccnc1Cl (stereo not shown) [Example 109, 5-[1-(2,4-dichloro-3-pyridyl)ethoxy]-3-[6-(2-methylsulfonyl-2,6-diazaspiro[3.3]heptan-6-yl)-3-pyridyl]-1H-indazole] | 100 to 300 | 12 | 1 to 20 | 20 to 100 | 100 to 300 | 1 to 20 | 1 to 20 | 1 to 20 | 20 to 100 | 1 to 20 |
| C[C@@H](Oc1ccc2[nH]nc(-c3ccc(N4CC5(CCN(S(C)(=O)=O)C5)C4)nc3)c2c1)c1c(Cl)cncc1Cl [Example 115, 5-[(1R)-1-(3,5-dichloro-4-pyridyl)ethoxy]-3-[6-(7-methylsulfonyl-2,7-diazaspiro[3.4]octan-2-yl)-3-pyridyl]-1H-indazole] | 100 to 300 | 14 | 1 to 20 | 1 to 20 | 20 to 100 | 1 to 20 | 1 to 20 | 1 to 20 | 1 to 20 | 1 to 20 |
| C[C@@H](Oc1ccc2[nH]nc(-c3ccc(N4CC5(CCS(=O)(=O)C5)C4)nc3)c2c1)c1c(Cl)cncc1Cl [Example 117, 2-[5-[5-[(1R)-1-(3,5-dichloro-4-pyridyl)ethoxy]-1H-indazol-3-yl]-2-pyridyl]-6λ^6-thia-2-azaspiro[3.4]octane 6,6-dioxide] | 20 to 100 | 15 | 1 to 20 | 1 to 20 | 20 to 100 | 1 to 20 | 1 to 20 | 1 to 20 | 1 to 20 | 1 to 20 |
| C[C@@H](Oc1ccc2[nH]nc(-c3cnc(N4CC5(C4)CN(S(C)(=O)=O)C5)nc3)c2c1)c1c(Cl)cncc1Cl [Example 119, 5-[(1R)-1-(3,5-dichloro-4-pyridyl)ethoxy]-3-[2-(2-methylsulfonyl-2,6-diazaspiro[3.3]heptan-6-yl)pyrimidin-5-yl]-1H-indazole] | 100 to 300 | 9 | 1 to 20 | 20 to 100 | 20 to 100 | 1 to 20 | 20 to 100 | 1 to 20 | 20 to 100 | 1 to 20 |
| CC(C)S(=O)(=O)N1CC2(CN(c3ncc(-c4n[nH]c5ccc(O[C@H](C)c6c(Cl)cncc6Cl)cc45)cn3)C2)C1 [Example 120, 5-[(1R)-1-(3,5-dichloro-4-pyridyl)ethoxy]-3-[2-(2-isopropylsulfonyl-2,6-diazaspiro[3.3]heptan-6-yl)pyrimidin-5-yl]-1H-indazole] | > 300 | 7 | 20 to 100 | 20 to 100 | 100 to 300 | 1 to 20 | 20 to 100 | 1 to 20 | 20 to 100 | 1 to 20 |
| CCOC(=O)N1CC2(C1)CN(c1ccc(-c3n[nH]c4ccc(O[C@H](C)c5c(Cl)cncc5Cl)cc34)cn1)C2 [Example 121, ethyl 6-[5-[5-[(1R)-1-(3,5-dichloro-4-pyridyl)ethoxy]-1H-indazol-3-yl]-2-pyridyl]-2,6-diazaspiro[3.3]heptane-2-carboxylate] | 100 to 300 | 14 | 1 to 20 | 1 to 20 | 100 to 300 | 1 to 20 | 20 to 100 | 1 to 20 | 20 to 100 | 1 to 20 |
| C[C@@H](Oc1ccc2[nH]nc(-c3cnc(N4CC5(CCS(=O)(=O)C5)C4)nc3)c2c1)c1c(Cl)cncc1Cl [Example 122, 2-[5-[5-[(1R)-1-(3,5-dichloro-4-pyridyl)ethoxy]-1H-indazol-3-yl]pyrimidin-2-yl]-6λ^6-thia-2-azaspiro[3.4]octane 6,6-dioxide] | 100 to 300 | 7 | 1 to 20 | 1 to 20 | 20 to 100 | 1 to 20 | 20 to 100 | 1 to 20 | 1 to 20 | 1 to 20 |
| COC(=O)N1CC2(C1)CN(c1ccc(-c3n[nH]c4ccc(O[C@H](C)c5c(Cl)cncc5Cl)cc34)cn1)C2 [Example 123, methyl 6-[5-[5-[(1R)-1-(3,5-dichloro-4-pyridyl)ethoxy]-1H-indazol-3-yl]-2-pyridyl]-2,6-diazaspiro[3.3]heptane-2-carboxylate] | 100 to 300 | 15 | 1 to 20 | 1 to 20 | 20 to 100 | 1 to 20 | 1 to 20 | 1 to 20 | 1 to 20 | 1 to 20 |
| CCS(=O)(=O)N1CC2(CN(c3ccc(-c4n[nH]c5ccc(O[C@H](C)c6c(Cl)cncc6Cl)cc45)cn3)C2)C1 [Example 124, 5-[(1R)-1-(3,5-dichloro-4-pyridyl)ethoxy]-3-[6-(2-ethylsulfonyl-2,6-diazaspiro[3.3]heptan-6-yl)-3-pyridyl]-1H-indazole] | 100 to 300 | 17 | 1 to 20 | 1 to 20 | 100 to 300 | 1 to 20 | 20 to 100 | 1 to 20 | 20 to 100 | 1 to 20 |

Reference: patent publication US20240109865A1, “INDAZOLE COMPOUNDS AS KINASE INHIBITORS” (TYRA BIOSCIENCES, INC., priority 2020, published 2024)
